Measurements as given in ChEMBL document CHEMBL6096689, “Structure-Guided Development of ClpP Agonists with Potent Therapeutic Activities against Staphylococcus aureus Infection” (J Med Chem, 2025).
≈ marks a conversion by molar mass, not a printed value.

Tests used:
[1] = target: T1, ATP-dependent Clp protease proteolytic subunit (Staphylococcus aureus (strain NCTC 8325), UniProt Q2G036); assay: Agonist activity at Staphylococcus aureus ClpP extracted from Escherichia coli BL21 (DE3) cells using alpha-casein as substrate assessed as substrate hydrolysis preincubated for 15 mins followed by substrate addition and measured after 2 hrs by SDS-PAGE analysis
T1 sequence (Q2G036 whole entry): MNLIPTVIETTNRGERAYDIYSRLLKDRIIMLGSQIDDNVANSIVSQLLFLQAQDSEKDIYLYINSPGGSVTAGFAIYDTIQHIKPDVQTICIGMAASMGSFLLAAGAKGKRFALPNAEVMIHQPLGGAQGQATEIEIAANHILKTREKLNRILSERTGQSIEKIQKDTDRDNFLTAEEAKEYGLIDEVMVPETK

[2] = system: Staphylococcus aureus; assay: microbe, parasite or virus in culture; format: functional; details: Newman, time 18 hrs
Description: Antibacterial activity against Staphylococcus aureus Newman assessed as inhibition of visible growth of bacteria incubated for 18 hrs by absorbance based analysis

[3] = system: Staphylococcus aureus; assay: microbe, parasite or virus in culture; format: functional; details: NRS-108, time 18 hrs
Description: Antibacterial activity against methicillin-resistant Staphylococcus aureus NRS-108 assessed as inhibition of visible growth of bacteria incubated for 18 hrs by absorbance based analysis

[4] = system: Staphylococcus aureus; assay: microbe, parasite or virus in culture; format: functional; details: time 18 hrs
Description: Antibacterial activity against multidrug-resistant Staphylococcus aureus clinical isolate XJ049 assessed as inhibition of visible growth of bacteria incubated for 18 hrs by absorbance based analysis

[5] = system: Staphylococcus aureus; assay: microbe, parasite or virus in culture; format: functional; details: time 18 hrs; remark: listed apart in the source
Description: Antibacterial activity against multidrug-resistant Staphylococcus aureus clinical isolate XJ051 assessed as inhibition of visible growth of bacteria incubated for 18 hrs by absorbance based analysis

[6] = system: Staphylococcus aureus; assay: microbe, parasite or virus in culture; format: functional; details: USA300, time 18 hrs
Description: Antibacterial activity against methicillin-resistant Staphylococcus aureus USA300 assessed as inhibition of visible growth of bacteria incubated for 18 hrs by absorbance based analysis

[7] = system: Staphylococcus aureus; assay: microbe, parasite or virus in culture; format: functional; details: time 18 hrs; remark: listed apart in the source
Description: Antibacterial activity against multidrug-resistant Staphylococcus aureus clinical isolate XJ052 assessed as inhibition of visible growth of bacteria incubated for 18 hrs by absorbance based analysis

[8] = system: Staphylococcus aureus; assay: microbe, parasite or virus in culture; format: functional; details: time 18 hrs; remark: listed apart in the source
Description: Antibacterial activity against multidrug-resistant Staphylococcus aureus clinical isolate XJ025 assessed as inhibition of visible growth of bacteria incubated for 18 hrs by absorbance based analysis

[9] = system: Staphylococcus aureus; assay: microbe, parasite or virus in culture; format: functional; details: NRS-1, time 18 hrs
Description: Antibacterial activity against methicillin-resistant Staphylococcus aureus NRS-1 assessed as inhibition of visible growth of bacteria incubated for 18 hrs by absorbance based analysis

[10] = system: Staphylococcus aureus; assay: microbe, parasite or virus in culture; format: functional; details: NRS-271, time 18 hrs
Description: Antibacterial activity against methicillin-resistant Staphylococcus aureus NRS-271 assessed as inhibition of visible growth of bacteria incubated for 18 hrs by absorbance based analysis

[11] = system: Staphylococcus aureus; assay: microbe, parasite or virus in culture; format: functional; details: time 18 hrs; remark: listed apart in the source
Description: Antibacterial activity against multidrug-resistant Staphylococcus aureus clinical isolate XJ009 assessed as inhibition of visible growth of bacteria incubated for 18 hrs by absorbance based analysis

[12] = system: Staphylococcus aureus; assay: microbe, parasite or virus in culture; format: functional; details: NRS-70, time 18 hrs
Description: Antibacterial activity against methicillin-resistant Staphylococcus aureus NRS-70 assessed as inhibition of visible growth of bacteria incubated for 18 hrs by absorbance based analysis

EC50 [1] [µM] | MIC [2] [µg/mL] | SMILES | other results
2 | 4 (≈ 7.54 µM) | O=C1[C@H](CC2CCC2)N2C(=O)CCN(C(=O)NCCCC(F)(F)F)[C@H]2CN1Cc1cccc2ccccc12 | –
1.94 | 4 (≈ 6.69 µM) | CC[C@H](C)[C@H]1C(=O)N(Cc2ccc(Br)c3ccccc23)C[C@@H]2N(C(=O)NCCCC(F)(F)F)CCC(=O)N12 | –
17.3 | 128 (≈ 259 µM) | CC[C@H](C)[C@H]1C(=O)N(Cc2cccc3ccccc23)C[C@@H]2N(C(=O)NCCC(=O)OC)CCC(=O)N12 | –
1 | 32 (≈ 59.5 µM) | CC[C@H](C)[C@H]1C(=O)N(Cc2ccc(Cl)cc2Cl)C[C@@H]2N(C(=O)NCCCC(F)(F)F)CCC(=O)N12 | –
1.6 | 2 (≈ 3.96 µM) | CC(C)[C@H]1C(=O)N(Cc2cccc3ccccc23)C[C@@H]2N(C(=O)NCCCC(F)(F)F)CCC(=O)N12 | –
1.1 | 4 (≈ 8.02 µM) | CC[C@H](C)[C@H]1C(=O)N(Cc2cccc3ccccc23)C[C@@H]2N(C(=O)NCCCCCl)CCC(=O)N12 | –
2.5 | 16 (≈ 35 µM) | C[C@H]1C(=O)N(Cc2cccc3ccccc23)C[C@@H]2N(C(=O)NCc3ccccc3)CCC(=O)N21 | –
1.9 | 2 (≈ 4.2 µM) | CC[C@H](C)[C@H]1C(=O)N(Cc2cccc3ccccc23)C[C@@H]2N(C(=O)NCCC3CC3)CCC(=O)N12 | –
0.78 | 16 (≈ 29.8 µM) | CC[C@H](C)[C@H]1C(=O)N(Cc2cc(Cl)cc(Cl)c2)C[C@@H]2N(C(=O)NCCCC(F)(F)F)CCC(=O)N12 | –
1.1 | 16 (≈ 29.2 µM) | O=C1[C@H](Cc2ccc(O)cc2)N2C(=O)CCN(C(=O)NCc3ccccc3)[C@H]2CN1Cc1cccc2ccccc12 | –
1.3 | 4 (≈ 7.71 µM) | CC(C)C[C@H]1C(=O)N(Cc2cccc3ccccc23)C[C@@H]2N(C(=O)NCCCC(F)(F)F)CCC(=O)N21 | –
1.4 | 4 (≈ 7.96 µM) | C=CC[C@H]1C(=O)N(Cc2cccc3ccccc23)C[C@@H]2N(C(=O)NCCCC(F)(F)F)CCC(=O)N21 | –
4.9 | 32 (≈ 66.9 µM) | CC[C@H](C)[C@H]1C(=O)N(Cc2cccc3ccccc23)C[C@@H]2N(C(=O)NCC(C)(C)C)CCC(=O)N12 | –
1.3 | 4 (≈ 8.25 µM) | CC[C@H](C)[C@H]1C(=O)N(Cc2cccc3ccccc23)C[C@@H]2N(C(=O)NCCCCl)CCC(=O)N12 | –
3.8 | 8 (≈ 17.2 µM) | CC[C@H](C)[C@H]1C(=O)N(Cc2cccc3ccccc23)C[C@@H]2N(C(=O)NCC(C)C)CCC(=O)N12 | –
1.9 | 4 (≈ 7.99 µM) | C#CC[C@H]1C(=O)N(Cc2cccc3ccccc23)C[C@@H]2N(C(=O)NCCCC(F)(F)F)CCC(=O)N21 | –
> 40 | > 128 | CC[C@H](C)[C@H]1C(=O)N(Cc2cccc3ccccc23)C[C@@H]2N(C(=O)NCCCCCCl)CCC(=O)N12 | –
1.6 | 2 (≈ 4.3 µM) | CCCCNC(=O)N1CCC(=O)N2[C@@H]([C@@H](C)CC)C(=O)N(Cc3cccc4ccccc34)C[C@H]12 | –
3.1 | 8 (≈ 15.5 µM) | CSCC[C@H]1C(=O)N(Cc2cccc3ccccc23)C[C@@H]2N(C(=O)NCc3ccccc3)CCC(=O)N21 | –
2.2 | 16 (≈ 35.5 µM) | CCCNC(=O)N1CCC(=O)N2[C@@H]([C@@H](C)CC)C(=O)N(Cc3cccc4ccccc34)C[C@H]12 | –
1.01 | 0.5 (≈ 0.932 µM) | CC[C@H](C)[C@H]1C(=O)N(Cc2ccc(F)c3ccccc23)C[C@@H]2N(C(=O)NCCCC(F)(F)F)CCC(=O)N12 | –
5.2 | > 128 | CC[C@H](C)[C@H]1C(=O)N(Cc2cccc3ccccc23)C[C@@H]2N(C(=O)NCCc3ccco3)CCC(=O)N12 | –

The remaining lines, values behind:

SMILES | EC50 [1] [µM] | MIC [2] [µg/mL] | other results
O=C1[C@H](Cc2ccccc2)N2C(=O)CCN(C(=O)NCc3ccccc3)[C@H]2CN1Cc1cccc2ccccc12 | 2.9 | 8 (≈ 15 µM) | –
CC[C@H](C)[C@H]1C(=O)N(Cc2cccc3ccccc23)C[C@@H]2N(C(=O)NCCCC(F)(F)F)CCC(=O)N12 | 0.72 | 1 (≈ 1.93 µM) | –
CN[C@@H]1[C@@H](O)[C@@H](O[C@@H]2[C@@H](O)[C@H](O[C@H]3O[C@H](CN)CC[C@H]3N)[C@@H](N)C[C@H]2N)OC[C@]1(C)O [GENTAMICIN C1A] | – | 0.5 (≈ 1.11 µM) | MIC [3]: 0.25 µg/mL (≈ 0.556 µM); MIC [4]: 128 µg/mL (≈ 285 µM); MIC [5]: > 128 µg/mL; MIC [6]: 1 µg/mL (≈ 2.22 µM); MIC [7]: > 128 µg/mL; MIC [8]: 128 µg/mL (≈ 285 µM); MIC [9]: > 128 µg/mL; MIC [10]: 0.5 µg/mL (≈ 1.11 µM); MIC [11]: 64 µg/mL (≈ 142 µM); MIC [12]: 0.5 µg/mL (≈ 1.11 µM)
CC1(C)S[C@@H]2[C@H](NC(=O)[C@H](N)c3ccccc3)C(=O)N2[C@H]1C(=O)O [AMPICILLIN] | – | 0.25 (≈ 0.715 µM) | MIC [3]: 4 µg/mL (≈ 11.4 µM); MIC [4]: 64 µg/mL (≈ 183 µM); MIC [5]: 128 µg/mL (≈ 366 µM); MIC [7]: 64 µg/mL (≈ 183 µM); MIC [8]: 64 µg/mL (≈ 183 µM); MIC [9]: 32 µg/mL (≈ 91.6 µM); MIC [10]: 32 µg/mL (≈ 91.6 µM); MIC [11]: 64 µg/mL (≈ 183 µM); MIC [12]: 4 µg/mL (≈ 11.4 µM)
O=C1[C@H](CC2CCCC2)N2C(=O)CCN(C(=O)NCCCC(F)(F)F)[C@H]2CN1Cc1cccc2ccccc12 | 2.2 | 4 (≈ 7.34 µM) | –
CC[C@H](C)[C@H]1C(=O)N(Cc2cccc3ccccc23)C[C@@H]2N(C(=O)NCCC(C)=O)CCC(=O)N12 | 26.1 | > 128 | –
CCCC(C)NC(=O)N1CCC(=O)N2[C@@H]([C@@H](C)CC)C(=O)N(Cc3cccc4ccccc34)C[C@H]12 (stereo partly specified) | 5.2 | 8 (≈ 16.7 µM) | –
CCn1cc(C(=O)O)c(=O)c2cc(F)c(N3CCNCC3)cc21 [NORFLOXACIN] | – | 0.25 (≈ 0.783 µM) | MIC [3]: 32 µg/mL (≈ 100 µM); MIC [4]: > 128 µg/mL; MIC [5]: > 128 µg/mL; MIC [6]: 16 µg/mL (≈ 50.1 µM); MIC [7]: > 128 µg/mL; MIC [8]: > 128 µg/mL; MIC [9]: 64 µg/mL (≈ 200 µM); MIC [10]: > 128 µg/mL; MIC [11]: > 128 µg/mL; MIC [12]: 1 µg/mL (≈ 3.13 µM)
[N-]=[N+]=NCCC[C@H]1C(=O)N(Cc2cccc3ccccc23)C[C@@H]2N(C(=O)NCCCC(F)(F)F)CCC(=O)N21 | 1.5 | 2 (≈ 3.67 µM) | –
CCC[C@@H]1C[C@@H](C(=O)N[C@@H]([C@H]2O[C@H](SC)[C@H](O)[C@@H](O)[C@H]2O)[C@H](C)Cl)N(C)C1 [CLINDAMYCIN] | – | 0.016 (≈ 0.0376 µM) | MIC [3]: 128 µg/mL (≈ 301 µM); MIC [4]: > 128 µg/mL; MIC [5]: 0.016 µg/mL (≈ 0.0376 µM); MIC [6]: 0.008 µg/mL (≈ 0.0188 µM); MIC [7]: > 128 µg/mL; MIC [8]: 0.016 µg/mL (≈ 0.0376 µM); MIC [9]: 64 µg/mL (≈ 151 µM); MIC [10]: 0.016 µg/mL (≈ 0.0376 µM); MIC [11]: 128 µg/mL (≈ 301 µM); MIC [12]: 128 µg/mL (≈ 301 µM)
CCC(C)CNC(=O)N1CCC(=O)N2[C@@H]([C@@H](C)CC)C(=O)N(Cc3cccc4ccccc34)C[C@H]12 (stereo partly specified) | 1.8 | 2 (≈ 4.18 µM) | –
O=C1[C@H](CC2CC2)N2C(=O)CCN(C(=O)NCCCC(F)(F)F)[C@H]2CN1Cc1cccc2ccccc12 | 3.5 | 4 (≈ 7.74 µM) | –
CC[C@H]1OC(=O)[C@H](C)[C@@H](O[C@H]2C[C@@](C)(OC)[C@@H](O)[C@H](C)O2)[C@H](C)[C@@H](O[C@@H]2O[C@H](C)C[C@H](N(C)C)[C@H]2O)[C@](C)(O)C[C@@H](C)C(=O)[C@H](C)[C@@H](O)[C@]1(C)O [ERYTHROMYCIN] | – | 0.13 (≈ 0.177 µM) | MIC [3]: > 128 µg/mL; MIC [4]: > 128 µg/mL; MIC [5]: 8 µg/mL (≈ 10.9 µM); MIC [6]: 8 µg/mL (≈ 10.9 µM); MIC [7]: > 128 µg/mL; MIC [8]: 1 µg/mL (≈ 1.36 µM); MIC [9]: > 128 µg/mL; MIC [10]: 0.25 µg/mL (≈ 0.341 µM); MIC [11]: > 128 µg/mL; MIC [12]: > 128 µg/mL
NC[C@H]1O[C@H](O[C@H]2[C@H](O)[C@@H](O[C@H]3O[C@H](CO)[C@@H](O)[C@H](N)[C@H]3O)[C@H](N)C[C@@H]2N)[C@H](O)[C@@H](O)[C@@H]1O [KANAMYCIN] | – | 4 (≈ 8.26 µM) | MIC [3]: 64 µg/mL (≈ 132 µM); MIC [4]: > 128 µg/mL; MIC [5]: > 128 µg/mL; MIC [6]: > 128 µg/mL; MIC [7]: > 128 µg/mL; MIC [8]: > 128 µg/mL; MIC [9]: > 128 µg/mL; MIC [10]: 2 µg/mL (≈ 4.13 µM); MIC [11]: > 128 µg/mL; MIC [12]: 64 µg/mL (≈ 132 µM)
CC[C@H](C)[C@H]1C(=O)N(Cc2cccc3ccccc23)C[C@@H]2N(C(=O)NCCC(C)C)CCC(=O)N12 | 1.9 | 2 (≈ 4.18 µM) | –
CC[C@H](C)[C@H]1C(=O)N(Cc2ccc(C)c3ccccc23)C[C@@H]2N(C(=O)NCCCC(F)(F)F)CCC(=O)N12 | 1.52 | 0.25 (≈ 0.469 µM) | –
CC[C@H](C)[C@H]1C(=O)N(Cc2cccc3ccccc23)C[C@@H]2N(C(=O)NCc3ccccc3)CCC(=O)N12 | 0.9 | 4 (≈ 8.02 µM) | –
CC[C@@H](C)[C@H]1C(=O)N(Cc2cccc3ccccc23)C[C@@H]2N(C(=O)NCc3ccc(Br)cc3)CCC(=O)N12 | 1.2 | 4 (≈ 6.93 µM) | –
O=C1[C@H](CO)N2C(=O)CCN(C(=O)NCc3ccccc3)[C@H]2CN1Cc1cccc2ccccc12 | 4.5 | 64 (≈ 135 µM) | –
CC[C@H](C)[C@H]1C(=O)N(Cc2cccc3ccccc23)C[C@@H]2N(C(=O)NCCC3CCOC3)CCC(=O)N12 (stereo partly specified) | 6.9 | 128 (≈ 253 µM) | –
CC(C)C[C@H]1C(=O)N(Cc2cccc3ccccc23)C[C@@H]2N(C(=O)NCc3ccccc3)CCC(=O)N21 | 1.2 | 16 (≈ 32.1 µM) | –
O=C1[C@H](CC2CCCCC2)N2C(=O)CCN(C(=O)NCCCC(F)(F)F)[C@H]2CN1Cc1cccc2ccccc12 | 1.6 | 2 (≈ 3.58 µM) | –
